Reference: article doi:10.1101/2023.11.24.568596v1 (biorxiv, 2023)
Values belong to the compound of their own block, whether it stands above or below them.

Assays:
Settings in all cases: binder
NQO2A = molecular target: T1, NQO2A (Homo sapiens, UniProt P16083)
T1 sequence (P16083 1-231): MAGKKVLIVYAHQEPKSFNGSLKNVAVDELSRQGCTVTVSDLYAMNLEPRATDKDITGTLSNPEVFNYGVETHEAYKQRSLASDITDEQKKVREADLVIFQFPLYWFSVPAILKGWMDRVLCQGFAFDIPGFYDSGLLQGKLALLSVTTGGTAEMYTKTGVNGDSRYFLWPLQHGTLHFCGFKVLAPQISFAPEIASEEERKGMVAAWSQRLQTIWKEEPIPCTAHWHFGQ

EphB1 = molecular target: T2, EphB1 (Homo sapiens, UniProt P54762)
T2 sequence (P54762 1-984): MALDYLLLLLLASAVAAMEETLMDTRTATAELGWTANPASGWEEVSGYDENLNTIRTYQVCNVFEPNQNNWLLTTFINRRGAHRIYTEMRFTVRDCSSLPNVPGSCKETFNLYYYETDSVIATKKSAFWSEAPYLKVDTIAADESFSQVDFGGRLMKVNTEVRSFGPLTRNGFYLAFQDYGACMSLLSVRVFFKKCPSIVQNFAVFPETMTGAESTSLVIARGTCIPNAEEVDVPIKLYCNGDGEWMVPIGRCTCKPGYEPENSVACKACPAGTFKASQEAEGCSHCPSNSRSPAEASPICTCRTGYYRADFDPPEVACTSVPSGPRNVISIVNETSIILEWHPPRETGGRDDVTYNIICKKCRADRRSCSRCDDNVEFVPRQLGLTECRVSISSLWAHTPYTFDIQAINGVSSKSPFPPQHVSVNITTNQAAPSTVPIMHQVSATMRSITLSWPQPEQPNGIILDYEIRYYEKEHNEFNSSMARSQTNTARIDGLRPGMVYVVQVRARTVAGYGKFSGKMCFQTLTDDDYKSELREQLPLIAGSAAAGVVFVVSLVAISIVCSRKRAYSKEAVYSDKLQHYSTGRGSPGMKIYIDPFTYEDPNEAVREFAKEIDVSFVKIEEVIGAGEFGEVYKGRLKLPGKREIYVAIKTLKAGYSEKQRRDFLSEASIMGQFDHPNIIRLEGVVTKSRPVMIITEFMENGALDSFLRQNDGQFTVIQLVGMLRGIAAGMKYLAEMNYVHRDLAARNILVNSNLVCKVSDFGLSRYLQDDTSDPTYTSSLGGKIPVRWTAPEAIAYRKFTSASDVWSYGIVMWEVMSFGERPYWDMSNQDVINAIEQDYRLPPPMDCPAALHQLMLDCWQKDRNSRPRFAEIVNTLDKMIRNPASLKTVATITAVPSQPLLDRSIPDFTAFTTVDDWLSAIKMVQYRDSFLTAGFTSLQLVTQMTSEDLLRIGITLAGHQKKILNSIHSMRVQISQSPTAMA

FECH = molecular target: T3, FECH (Homo sapiens, UniProt P22830)
T3 sequence (P22830 1-423): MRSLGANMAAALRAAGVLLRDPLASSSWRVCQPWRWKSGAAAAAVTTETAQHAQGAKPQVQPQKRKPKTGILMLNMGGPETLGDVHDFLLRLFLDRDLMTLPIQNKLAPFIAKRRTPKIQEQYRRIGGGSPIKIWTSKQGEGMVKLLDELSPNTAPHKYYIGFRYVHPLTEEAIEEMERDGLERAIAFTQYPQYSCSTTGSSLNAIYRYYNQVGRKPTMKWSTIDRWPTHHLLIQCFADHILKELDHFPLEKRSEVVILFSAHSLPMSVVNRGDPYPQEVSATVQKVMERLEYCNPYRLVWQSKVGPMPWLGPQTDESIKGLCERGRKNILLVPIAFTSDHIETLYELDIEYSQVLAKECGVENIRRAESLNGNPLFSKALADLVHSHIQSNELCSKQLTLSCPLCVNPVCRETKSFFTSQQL

EphA4 = EphA4 (Homo sapiens, UniProt P54764)
HIPK2 = HIPK2 (Homo sapiens, UniProt Q9H2X6)
Sequence of HIPK2 (Q9H2X6 whole entry): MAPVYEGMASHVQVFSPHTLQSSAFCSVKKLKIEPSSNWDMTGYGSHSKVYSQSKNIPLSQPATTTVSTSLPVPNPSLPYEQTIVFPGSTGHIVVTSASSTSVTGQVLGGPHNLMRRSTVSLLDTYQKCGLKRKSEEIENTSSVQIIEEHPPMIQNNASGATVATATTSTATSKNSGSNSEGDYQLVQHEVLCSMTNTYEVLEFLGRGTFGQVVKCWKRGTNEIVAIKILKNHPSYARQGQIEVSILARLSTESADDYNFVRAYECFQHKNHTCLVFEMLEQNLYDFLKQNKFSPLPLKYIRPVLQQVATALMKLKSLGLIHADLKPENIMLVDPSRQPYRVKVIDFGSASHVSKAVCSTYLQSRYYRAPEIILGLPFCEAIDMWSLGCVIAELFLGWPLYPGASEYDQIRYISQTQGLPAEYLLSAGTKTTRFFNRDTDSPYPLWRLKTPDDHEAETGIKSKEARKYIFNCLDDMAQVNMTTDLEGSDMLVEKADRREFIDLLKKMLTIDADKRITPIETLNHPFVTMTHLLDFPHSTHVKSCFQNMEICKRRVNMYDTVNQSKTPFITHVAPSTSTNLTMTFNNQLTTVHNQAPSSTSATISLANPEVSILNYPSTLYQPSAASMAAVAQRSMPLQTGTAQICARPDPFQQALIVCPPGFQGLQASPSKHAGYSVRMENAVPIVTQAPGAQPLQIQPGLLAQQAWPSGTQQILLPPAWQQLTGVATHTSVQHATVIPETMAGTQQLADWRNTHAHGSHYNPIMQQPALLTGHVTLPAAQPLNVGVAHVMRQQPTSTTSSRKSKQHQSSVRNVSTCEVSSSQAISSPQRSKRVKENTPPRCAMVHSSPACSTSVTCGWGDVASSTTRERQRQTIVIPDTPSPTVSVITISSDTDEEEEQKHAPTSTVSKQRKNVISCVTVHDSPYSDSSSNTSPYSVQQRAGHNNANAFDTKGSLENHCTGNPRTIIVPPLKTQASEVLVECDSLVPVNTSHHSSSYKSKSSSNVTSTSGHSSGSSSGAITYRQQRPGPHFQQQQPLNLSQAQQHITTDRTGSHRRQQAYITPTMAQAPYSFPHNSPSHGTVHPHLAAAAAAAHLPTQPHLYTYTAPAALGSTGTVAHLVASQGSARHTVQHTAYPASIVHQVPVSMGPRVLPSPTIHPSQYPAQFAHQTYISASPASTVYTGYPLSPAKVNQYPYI

Sequence of EphA4 (P54764 whole entry): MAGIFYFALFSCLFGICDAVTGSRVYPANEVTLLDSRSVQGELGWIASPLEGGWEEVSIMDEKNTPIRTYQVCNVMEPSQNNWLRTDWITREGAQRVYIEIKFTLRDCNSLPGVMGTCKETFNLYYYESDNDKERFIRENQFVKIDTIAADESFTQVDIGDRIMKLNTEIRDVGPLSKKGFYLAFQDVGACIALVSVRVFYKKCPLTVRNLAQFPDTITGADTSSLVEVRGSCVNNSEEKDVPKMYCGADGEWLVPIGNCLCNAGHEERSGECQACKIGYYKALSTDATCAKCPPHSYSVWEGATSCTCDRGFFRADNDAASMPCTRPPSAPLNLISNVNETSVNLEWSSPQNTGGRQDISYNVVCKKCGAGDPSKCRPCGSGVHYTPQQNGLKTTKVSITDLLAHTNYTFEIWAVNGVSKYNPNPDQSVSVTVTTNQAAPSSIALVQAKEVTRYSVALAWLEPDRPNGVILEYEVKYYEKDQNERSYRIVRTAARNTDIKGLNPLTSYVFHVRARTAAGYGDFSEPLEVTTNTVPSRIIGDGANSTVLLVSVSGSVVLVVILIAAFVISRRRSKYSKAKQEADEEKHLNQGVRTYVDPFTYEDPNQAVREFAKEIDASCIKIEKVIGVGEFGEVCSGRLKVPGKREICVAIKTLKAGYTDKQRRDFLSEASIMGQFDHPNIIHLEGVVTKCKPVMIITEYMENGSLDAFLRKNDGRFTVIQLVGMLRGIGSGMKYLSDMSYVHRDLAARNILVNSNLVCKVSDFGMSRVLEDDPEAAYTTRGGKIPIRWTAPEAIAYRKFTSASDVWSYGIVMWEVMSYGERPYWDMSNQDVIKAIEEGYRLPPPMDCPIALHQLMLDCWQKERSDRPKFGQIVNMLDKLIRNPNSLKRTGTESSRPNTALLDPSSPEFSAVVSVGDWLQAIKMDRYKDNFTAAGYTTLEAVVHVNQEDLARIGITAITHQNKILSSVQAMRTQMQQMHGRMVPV

SMILES: Cc1cccc(-c2ccc(-c3cc4cnc(NCCCc5ccc(N)cc5)nc4n(CCCCN)c3=O)c(Cl)c2)n1 [compound 25, 8-(4-Aminobutyl)-2-((3-(4-aminophenyl)propyl)amino)-6-(2-chloro-4-(6-methylpyridin-2-yl)phenyl)pyrido[2,3-d]pyrimidin-7(8H)-one]
ΔTm 25 (NQO2A): 0.5 °C | ΔTm 25 (EphB1): 3.0 °C | ΔTm 25 (FECH): 3.0 °C | ΔTm 25 (EphA4): 1.8 °C | ΔTm 25 (HIPK2): 0.8 °C

SMILES: Cc1cccc(-c2ccc(-c3cc4cnc(NCCCN5CCOCC5)nc4n(CCCCN)c3=O)c(Cl)c2)n1 [compound 26, MR26]
ΔTm MR26 (26) (NQO2A): 0.1 °C | ΔTm MR26 (26) (EphB1): 3.7 °C | ΔTm MR26 (26) (FECH): 0.3 °C | ΔTm MR26 (26) (EphA4): 2.5 °C | ΔTm MR26 (26) (HIPK2): 0.4 °C

Second part, the compound after the results:

ΔTm MR24 (24) (NQO2A): 0.3 °C | ΔTm MR24 (24) (EphB1): 0.2 °C | ΔTm MR24 (24) (FECH): -0.5 °C | ΔTm MR24 (24) (EphA4): -0.3 °C | ΔTm MR24 (24) (HIPK2): 0.4 °C
SMILES: Cc1cccc(-c2ccc(-c3cc4cnc(NC(CO)CO)nc4n(CCCCN)c3=O)c(Cl)c2)n1 [compound 24, 8-(4-Aminobutyl)-6-(2-chloro-4-(6-methylpyridin-2-yl)phenyl)-2-((1,3-dihydroxypropan-2-yl)amino)pyrido[2,3-d]pyrimidin-7(8H)-one]

ΔTm 22 (NQO2A): -0.1 °C | ΔTm 22 (EphB1): 2.6 °C | ΔTm 22 (FECH): -0.3 °C | ΔTm 22 (EphA4): 2.5 °C | ΔTm 22 (HIPK2): 2.3 °C
SMILES: CNc1ncc2cc(-c3ccc(-c4cccc(C)n4)cc3Cl)c(=O)n(CCC3CCNCC3)c2n1 [compound 22, 6-(2-Chloro-4-(6-methylpyridin-2-yl)phenyl)-2-(methylamino)-8-(2-(piperidin-4-yl)ethyl)pyrido[2,3-d]pyrimidin-7(8H)-one]

ΔTm 23 (EphB1): 3.4 °C | ΔTm 23 (EphA4): 2.9 °C | ΔTm 23 (HIPK2): 2.1 °C
SMILES: CNc1ncc2cc(-c3ccc(-c4cccc(C)n4)cc3Cl)c(=O)n(C[C@H]3CC[C@H](N)CC3)c2n1 [compound 23, 23]
